# Tests used:
# Format in all cases: cell-based, human
# [1] = system: hyaluronic acid synthase 2 (HAS 2) gene; assay: Quantitative RT-PCR of HAS 2 gene expression in HaCaT cells; settings: for Gene expression level (fold) HAS 2: 24 hours, relative mRNA level vs ethanol negative control as 1
# Experimental: (§1) HaCaT cells were cultured in Dulbecco's modified Eagle's medium (DMEM, GIBCO 1210-0038) containing 10% fetal bovine serum. 1×10^6 cells were placed in a […] flask and cultured for 24 hours. Then, after treating with DMEM not containing fetal bovine serum and culturing for 24 hours, the cells were treated with dehydroabietic acid in a medium not containing fetal bovine serum for 24 hours. Then, after harvesting the cells and washing with cooled phosphate-buffered saline (PBS), total RNA was extracted by adding 1 mL of TRIzolTM reagent (Life Technologies, Inc.). Then, quantitative reverse transcriptase PCR was conducted. The primer sequences of PPARα. TGase 1, filaggrin and HAS 2 used to conduct PCR are described in Table 2. After adding 4 μg of total RNA to 25 μL of a reverse transcription buffer containing 50 mM Tris-HCl (pH 8.3), 75 mM KCl, 3 mM MgCl^2, 0.1 M DTT, 10 mM dNTP and 40 units/μL RNase inhibitor, 0.5 μg/μL oligo (dT)16 primer and 200 units of SuperScript II (GIBCO BRL) were added and incubation was conducted at 42° C. for 1 hour. Then, after mixing 2.5 μL of the reverse transcription solution with a 50 µL of a PCR buffer containing AmpliTaq DNA polymerase (0.04U, Perkin Elmer, Shelton, CT), 50 mM Tris (pH 8.3), 0.25 mg/mL bovine serum albumin, 3 mM MgCl2, 0.25 mM dNTPs and a 1/50,000 diluted solution of SYBR Green I (Molecular Probes, Eugene, OR), 10 μM of primers were added and PCR was conducted for 30 cycles of 30 seconds at 94° C., 30 seconds at 53°° C. and 1 minute at 72° C. Relative mRNA level was analyzed by measuring the change in the fluorescence of SYBR Green I using the ICycler software. WY14643, which is a PPARα ligand, was used as a positive control group. The relative mRNA level was represented relative to an ethanol-treated negative control group as 1. […] WY14643 is a PPARα ligand reported to induce keratinocyte differentiation and strengthen skin barrier.
# [2] = system: PPARα gene; assay: Quantitative RT-PCR of PPARα gene expression in HaCaT cells; settings: for Gene expression level (fold) PPARα: 24 hours, relative mRNA level vs ethanol negative control as 1
# Experimental: as §1
# [3] = molecular target: T1, PPARα (Mus musculus, UniProt P23204); assay: PPARα activation, PPRE-luciferase reporter assay in transfected HaCaT cells; settings: 10 μM; for PPARα activation (%): 24 hours, luciferase activity relative to ethanol negative control (100)
# T1 construct: expressed in transfected cells; host or cells: HaCaT (human keratinocytes), transiently transfected
# T1 sequence (P23204 1-468): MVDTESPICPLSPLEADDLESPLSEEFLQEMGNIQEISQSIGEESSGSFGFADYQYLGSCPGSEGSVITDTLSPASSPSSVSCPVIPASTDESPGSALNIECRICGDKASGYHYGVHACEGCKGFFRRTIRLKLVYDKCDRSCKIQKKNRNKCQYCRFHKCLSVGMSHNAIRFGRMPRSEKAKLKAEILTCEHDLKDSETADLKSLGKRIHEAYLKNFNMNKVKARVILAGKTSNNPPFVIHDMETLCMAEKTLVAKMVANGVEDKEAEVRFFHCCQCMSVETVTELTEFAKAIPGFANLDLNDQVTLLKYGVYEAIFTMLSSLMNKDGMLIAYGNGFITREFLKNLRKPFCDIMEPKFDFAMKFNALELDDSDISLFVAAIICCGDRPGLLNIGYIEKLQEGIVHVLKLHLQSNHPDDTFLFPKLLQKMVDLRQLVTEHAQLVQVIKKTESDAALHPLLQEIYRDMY
# Source text: HaCaT cells, which are human keratinocytes, were subcultured in DMEM containing 10% fetal bovine serum. A phenol red-free medium was used to avoid the effect of phenol red on estrogen. The following plasmids were used: a plasmid having the PPARα gene downstream of a universal promoter which is expressed in general culture conditions; a plasmid having a PPAR response element (PPRE) activated by binding with ligand-bound PPAR as a promoter and a firefly luciferase gene reporter downstream of the promoter; and a reference plasmid having a β-galactosidase gene bound to a universal promoter [Kliewer, S. A., Forman, B. M., Blumberg, B., Ong, […]., Evans, R. M., Differential expression and activation of a family of murine peroxisome proliferator-activated receptors, Proc. Natl. Acad. Sci. USA, 91 (1994) 7355-7359.]. The HaCaT cells were seeded onto a 24-well plate at a density of 5×10^4 cells/well, cultured for 24 hours, and then transiently transfected with the plasmid genes. After 24 hours of culturing, followed by washing with phosphate-buffered saline (PBS), the ells were treated with dehydroabietic acid of Chemical Formula 1 purchased from Ramidus AB or WY14643, which is a PPARα ligand, as a positive control group at 10 μM. WY14643 is reported as a PPARα ligand which induces keratinocyte differentiation and strengthens skin barrier. A negative control group was treated with ethanol. After 24 hours of culturing, followed by washing with PBS, the cells were harvested and luciferase activity was measured. […] The result for each treatment group was represented relative to that of the negative control group.
# [4] = system: transglutaminase 1 (TGase 1) gene; assay: Quantitative RT-PCR of TGase 1 gene expression in HaCaT cells; settings: for Gene expression level (fold) TGase1: 24 hours, relative mRNA level vs ethanol negative control as 1
# Experimental: as §1
# [5] = system: filaggrin gene; assay: Quantitative RT-PCR of filaggrin gene expression in HaCaT cells; settings: for Gene expression level (fold) Filaggrin: 24 hours, relative mRNA level vs ethanol negative control as 1
# Experimental: as §1
PPARα activation (%) [3],"PPARα activation (luciferase activity), result in words ([3]; compared with WY14643 positive control)",SMILES,Gene expression level (fold) HAS 2 ([1]; 1 μM),Gene expression level (fold) HAS 2 ([1]; 10 μM),"Expression of the hyaluronic acid synthase 2 (HAS 2) gene, result in words ([1]; treatment for 24 hours)",Gene expression level (fold) PPARα ([2]; 1 μM),Gene expression level (fold) PPARα ([2]; 10 μM),"Expression of the PPARα gene, result in words ([2]; treatment for 24 hours)",Gene expression level (fold) TGase1 ([4]; 1 μM),Gene expression level (fold) TGase1 ([4]; 10 μM),"Expression of the transglutaminase 1 (TGase 1) gene, result in words ([4]; treatment for 24 hours)",Gene expression level (fold) Filaggrin ([5]; 1 μM),Gene expression level (fold) Filaggrin ([5]; 10 μM),"Expression of the filaggrin gene, result in words ([5]; treatment for 24 hours)"
291.5%,induced PPARα activation,"CC(C)c1ccc2c(c1)CC[C@H]1[C@](C)(C(=O)O)CCC[C@]21C [Dehydroabietic acid, dehydroabietic acid]",12.4 fold,40.15 fold,significantly increased,2.65 fold,6.16 fold,significantly increased,2.58 fold,5.94 fold,significantly increased,2.31 fold,3.34 fold,significantly increased
286.9%,–,"Cc1cccc(Nc2cc(Cl)nc(SCC(=O)O)n2)c1C [WY14643, reference compound]",9.64 fold,35.93 fold,–,2.54 fold,5.96 fold,–,2.13 fold,4.98 fold,–,1.86 fold,3.12 fold,–
